Here are results for 8 molecules from patent publication US6673827B1, “Methods of treating fungal infections with inhibitors of NAD synthetase enzyme” (priority 1999, dated 2004).

Each structure is given as a SMILES string. Like-named read-outs stand apart in the source and are kept apart here.

Broadly, the MIC is the lowest concentration found to suppress growth. Broadly, the IC50 is the concentration that inhibits the measured activity by half.

Assay [1] relates to Candida albicans (ATCC 10231). In words: Minimum Inhibitory Concentration (MIC) against yeast, broth dilution. The format is cell-based. The settings on record: for MIC Candida albicans (ATCC 10231): 37° C., 20 hours, mean of duplicate.
Assay [2] has as its system Candida tropicalis ATCC 28707. In words: In vitro study of inhibition of growth and lethality against yeast (MIC/MLC susceptibility test), isolate B. The format is cell-based. The settings on record: Candida tropicalis, 1st pair of lines, isolate assigned by line order; for MFC: ATCC28707, read-out: Minimum Lethal Conc. (MLC).
Assay [3] relates to Candida albicans KJP-000531594. In words: In vitro study of inhibition of growth and lethality against yeast (MIC/MLC susceptibility test), isolate C. Type of assay: cell-based. Particulars: Candida albicans, Candida albicans, 1st pair of lines; for MFC: KJP000531594, read-out: Minimum Lethal Conc. (MLC).
Assay [4] deals with Cryptococcus neoformans SLP-BC0012854. In words: In vitro study of inhibition of growth and lethality against yeast (MIC/MLC susceptibility test), isolate H. The settings on record: Cryptococcus neoformans, Cryptococcus neoformans, 2nd pair of lines, isolate assigned by line order; for MFC: SLPBC0012854, read-out: Minimum Lethal Conc. (MLC). The format is cell-based.
The subject of assay [5] is Cryptococcus neoformans DLB-1027594CNC. In words: In vitro study of inhibition of growth and lethality against yeast (MIC/MLC susceptibility test), isolate G. Type of assay: cell-based. The settings on record: Cryptococcus neoformans, Cryptococcus neoformans, 1st pair of lines, isolate assigned by line order; for MIC / MFC: DLB1027594CNC; for MFC: read-out: Minimum Lethal Conc. (MLC).

The subject of assay [6] is Candida albicans LH-000664533. In words: In vitro study of inhibition of growth and lethality against yeast (MIC/MLC susceptibility test), isolate D. The format is cell-based. Particulars: Candida albicans, Candida albicans, 2nd pair of lines, isolate assigned by line order; for MFC: LH000664533, read-out: Minimum Lethal Conc. (MLC).
Assay [7] deals with Torulopsis glabrata JHC-BC9951635. In words: In vitro study of inhibition of growth and lethality against yeast (MIC/MLC susceptibility test), isolate E. The settings on record: Torulopsis glabrata, 2nd pair of lines, isolate assigned by line order; for MIC / MFC: Nakaseomyces glabratus; for MFC: JHCBC9951635, read-out: Minimum Lethal Conc. (MLC). The format is cell-based.
Assay [8] relates to Torulopsis glabrata ERH-BC9938274. In words: In vitro study of inhibition of growth and lethality against yeast (MIC/MLC susceptibility test), isolate F. Type of assay: cell-based. Particulars: Torulopsis glabrata, 1st pair of lines, isolate assigned by line order; for MIC / MFC: Nakaseomyces glabratus; for MFC: ERHBC9938274, read-out: Minimum Lethal Conc. (MLC).
The target in assay [9] is T1, NAD synthetase (recombinant protein from B. subtilis; purified) (Bacillus subtilis, UniProt P08164).
T1 construct: made in house
T1 sequence (P08164 whole entry): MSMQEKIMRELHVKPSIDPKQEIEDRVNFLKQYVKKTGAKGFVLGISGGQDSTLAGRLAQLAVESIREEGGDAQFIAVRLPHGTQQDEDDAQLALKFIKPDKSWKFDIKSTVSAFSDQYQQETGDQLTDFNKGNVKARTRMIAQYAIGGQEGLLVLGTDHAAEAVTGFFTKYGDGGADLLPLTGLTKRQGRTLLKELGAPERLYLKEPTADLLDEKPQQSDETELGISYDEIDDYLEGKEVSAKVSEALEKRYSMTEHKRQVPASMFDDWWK
In words: NAD synthetase enzyme inhibition assay (coupled enzymatic assay, HTS). Type of assay: biochemical. The settings on record: IC50 (μg/mL) for Inhibit. of NAD Synthetase, table of structures used in the yeast assay (Example 4). The protocol: NAD Synthetase Enzyme Inhibition Assay-Determination of Test Compound Concentrations Providing 50% Inhibition ([…]) of the Maximum Enzyme Rate
The potential inhibitory activity of the synthetic compounds was determined by the use of a coupled enzymatic assay. The coupled assay involves two steps as summarized below. [drawing 98]
The measurement of inhibitory activities of the test compounds was facilitated by the use of a high through-put screening system (HTS system). The HTS system utilizes an integrated Sagian 2M ORCA robotic system coordinating the functions of a Beckman Biomek 2000 liquid handler and a Molecular Devices SpectraMax Plus spectrophotometer. The 2M ORCA robotic station is responsible for the movement of all hardware and the integration of multiple stations on the worksurface. The Biomek 2000 is programmed to perform all phases of liquid dispensing and mixing. The SpectraMax Plus spectrophotometer is equipped to monitor absorbance in a 96-well plate format.
The Biomek 2000 mixes these components utilizing a predefined mixing program. […] The reaction is monitored by measuring the increase in absorbance at 340 nm (NADH). The linear portion of the reaction is monitored for 180 sec. The initial velocity is determined using Softmax Pro, the software supplied with the Molecular Devices SpectrMax Plus spectrophotometer.
The test compounds were supplied as a stock solution with a concentration of 50 mM dissolved in 100% dimethyl sulfoxide (DMSO). An initial screen was conducted on all compounds using a 2 or 3 concentration screen. The 2 panel screen used concentrations of 0.2 mM and 0.1 mM for the compounds. The 3 panel screen used concentrations of 0.2 mM, 0.1 mM, and 0.05 mM. […] The IC50 values for each compound were determined graphically from a plot of % inhibition versus […].

For assay [10], the system named is Candida tropicalis ATCC 750. In words: In vitro study of inhibition of growth and lethality against yeast (MIC/MLC susceptibility test), isolate A. Particulars: Candida tropicalis, 2nd pair of lines, isolate assigned by line order; for MFC: ATCC750, read-out: Minimum Lethal Conc. (MLC). The format is cell-based.
Setting [11] is: ATCC28707, 24 h, read at 24 hr, read-out: Minimum Inhibitory Conc. (MIC), 24 hr.
Where [12] appears, read: ATCC28707, 48 h, read at 48 hr, read-out: Minimum Inhibitory Conc. (MIC), 48 hr.
The mark [13] stands for this setting: KJP000531594, 24 h, read at 24 hr, isolate not given, assigned by line order and MLC of Table 4B, read-out: Minimum Inhibitory Conc. (MIC), 24 hr.
Where [14] appears, read: KJP000531594, 48 h, read at 48 hr, isolate assigned by line order, read-out: Minimum Inhibitory Conc. (MIC), 48 hr.
Where [15] appears, read: SLPBC0012854, 48 h, read at 48 hr, read-out: Minimum Inhibitory Conc. (MIC), 48 hr.
The mark [16] stands for this setting: SLPBC0012854, 72 h, read at 72 hr, read-out: Minimum Inhibitory Conc. (MIC), 72 hr.
Setting [17] is: 48 h, read at 48 hr, read-out: Minimum Inhibitory Conc. (MIC), 48 hr.
Where [18] appears, read: 72 h, read at 72 hr, read-out: Minimum Inhibitory Conc. (MIC), 72 hr.
Setting [19] is: LH000664533, 24 h, read at 24 hr, read-out: Minimum Inhibitory Conc. (MIC), 24 hr.
The mark [20] stands for this setting: LH000664533, 48 h, read at 48 hr, read-out: Minimum Inhibitory Conc. (MIC), 48 hr.
The mark [21] stands for this setting: JHCBC9951635, 24 h, read at 24 hr, read-out: Minimum Inhibitory Conc. (MIC), 24 hr.
Setting [22] is: JHCBC9951635, 48 h, read at 48 hr, read-out: Minimum Inhibitory Conc. (MIC), 48 hr.
The mark [23] stands for this setting: ERHBC9938274, 24 h, read at 24 hr, read-out: Minimum Inhibitory Conc. (MIC), 24 hr.
Where [24] appears, read: ERHBC9938274, 48 h, read at 48 hr, read-out: Minimum Inhibitory Conc. (MIC), 48 hr.
The mark [25] stands for this setting: ATCC750, 24 h, read at 24 hr, read-out: Minimum Inhibitory Conc. (MIC), 24 hr.
The mark [26] stands for this setting: ATCC750, 48 h, read at 48 hr, read-out: Minimum Inhibitory Conc. (MIC), 48 hr.

`C[N+](C)(C)c1ccc(CC(=O)OCCCCCCCCn2ccc3cc(OCc4ccccc4)ccc32)cc1` [Compound 749]: the “MIC Candida albicans (ATCC 10231)” value in assay [1] amounted to 1.6 mg/L.
Take `COC(=O)c1cc2cc(OCc3ccccc3)ccc2n1CCCCCCCOC(=O)c1ccc[n+](C)c1` [Compound 976]: the “MIC Candida albicans (ATCC 10231)” value in assay [1] came to 3.1 mg/L.
On the same count and under the same terms, the result for `COC(=O)c1cc2cc(OCc3ccccc3)ccc2n1CCCCCCCCOC(=O)c1ccc[n+](C)c1` [Compound 977] reads 1.6 mg/L.
On to `COC(=O)c1cc2ccccc2n1CCCCCCCOC(=O)Cc1ccc([N+](C)(C)C)cc1` [Compound 984], for which the MIC in [1] (Candida albicans, ATCC10231, 20 h, read-out: MIC Candida albicans (ATCC 10231)) came out at 0.78 mg/L.
Consider `COC(=O)c1cc2ccccc2n1CCCCCCCCOC(=O)Cc1ccc([N+](C)(C)C)cc1` [Compound 985], for which the “MIC Candida albicans (ATCC 10231)” value in assay [1] stood at 1.6 mg/L.
`C[N+](C)(C)C(CCc1ccccc1)C(=O)OCCCCCCCCOc1ccc(OCc2ccccc2)cc1.[I-]` (stereo not drawn) [Compound 1260]: the MFC in assay [2] was determined as 1 mg/L; in [3] (isolate assigned by line order) it was 2 mg/L; in [4], 2 mg/L; in assay [5], 2 mg/L; in [6], 4 mg/L; in assay [7] it was 2 mg/L. The MFC in assay [8] and in assay [10] was 2 mg/L each time. Also, the MIC in assay [2] (setting [11]) amounted to 1 mg/L; in assay [2] (setting [12]) it was 1 mg/L; in assay [3] (setting [13]), 2 mg/L; in assay [3] (setting [14]) it was 2 mg/L; in assay [4] (setting [15]), 1 mg/L; in assay [4] (setting [16]) it was 1 mg/L. Besides, the MIC in assay [5] (setting [17]) worked out at 1 mg/L; in assay [5] (setting [18]), 1 mg/L; in assay [6] (setting [19]), 2 mg/L; in assay [6] (setting [20]) it was 2 mg/L; in [7] (setting [21]), 2 mg/L; in [7] (setting [22]), 2 mg/L. For the same molecule, the MIC in assay [8] (setting [23]), in assay [8] (setting [24]), in [10] (setting [25]) and in assay [10] (setting [26]) was 2 mg/L each time. Besides, the IC50 in assay [9] was 45.5 µM.
As to `Cc1[nH]c2ccccc2c1/C=C/C1=[N+](C)c2ccccc2C1(C)C.[Cl-]` [Compound 1400], the MFC in assay [2] was 16 mg/L; in [3] (isolate assigned by line order), greater than 32 mg/L; in assay [4], greater than 32 mg/L; in assay [5], greater than 32 mg/L; in assay [6], greater than 32 mg/L; in [7] it was greater than 32 mg/L. Besides, the MFC in assay [8] and in assay [10] was greater than 32 mg/L each time. Moreover, in assay [2] (read at 48 hr), the “Minimum Inhibitory Conc. (MIC), 48 hr.” value is 16 mg/L. Moreover, the minimum inhibitory concentration (MIC) in assay [2] (setting [11]) was 16 mg/L; in assay [2] (setting [12]) it was 32 mg/L; in [3] (setting [13]), greater than 32 mg/L; in [3] (setting [14]) it was greater than 32 mg/L; in [4] (setting [15]) it was greater than 32 mg/L; in assay [4] (setting [16]), greater than 32 mg/L. For the same molecule, the MIC was greater than 32 mg/L in [5] (setting [17]); greater than 32 mg/L in [5] (setting [18]); greater than 32 mg/L in assay [6] (setting [19]); greater than 32 mg/L in assay [6] (setting [20]); greater than 33 mg/L in assay [7] (setting [21]); greater than 32 mg/L in [7] (setting [22]). Besides, the minimum inhibitory concentration (MIC) in assay [8] (setting [23]) was greater than 34 mg/L; in assay [8] (setting [24]) it was greater than 32 mg/L; in assay [10] (setting [25]), greater than 32 mg/L; in assay [10] (setting [26]) it was greater than 32 mg/L. The “Minimum Inhibitory Conc. (MIC), 24 hr.” value in [7] (read at 24 hr) and in assay [8] (read at 24 hr) was greater than 32 mg/L in each case. Also, the IC50 in [9] was greater than 570 µM.
With `COC(=O)c1cc2ccccc2[n+](C)c1-c1c[nH]c2ccccc12.[I-]` [Compound 1500], the MFC in assay [2] was 8 mg/L; in assay [3] (isolate assigned by line order), greater than 32 mg/L; in assay [4], greater than 32 mg/L; in [5], greater than 32 mg/L; in [6], greater than 32 mg/L; in assay [7] it was greater than 32 mg/L. Moreover, the MFC in assay [8] and in [10] was greater than 32 mg/L each time. Moreover, the MIC was 4 mg/L in [2] (setting [11]); 8 mg/L in [2] (setting [12]); 32 mg/L in assay [3] (setting [13]); greater than 32 mg/L in assay [3] (setting [14]); 32 mg/L in assay [4] (setting [15]); 32 mg/L in [4] (setting [16]). Moreover, the MIC is 32 mg/L in [5] (setting [17]); 32 mg/L in assay [5] (setting [18]); 32 mg/L in assay [6] (setting [19]); greater than 32 mg/L in assay [6] (setting [20]); 32 mg/L in [7] (setting [21]); greater than 32 mg/L in assay [7] (setting [22]). Moreover, the minimum inhibitory concentration (MIC) in assay [8] (setting [23]) was 32 mg/L; in assay [8] (setting [24]), greater than 32 mg/L; in assay [10] (setting [25]) it was 32 mg/L; in [10] (setting [26]), greater than 32 mg/L. In addition, the “Minimum Inhibitory Conc. (MIC), 24 hr.” value in assay [3] (read at 24 hr, isolate not given, assigned by line order and MLC of Table 4B) was greater than 32 mg/L; in assay [6] (read at 24 hr), greater than 32 mg/L; in assay [7] (read at 24 hr) it was greater than 32 mg/L; in assay [8] (read at 24 hr), greater than 32 mg/L; in [10] (read at 24 hr), greater than 32 mg/L. For the same molecule, the “Minimum Inhibitory Conc. (MIC), 72 hr.” value in assay [4] (read at 72 hr) and in assay [5] (read at 72 hr) was greater than 32 mg/L in each case. Also, the IC50 in [9] is greater than 450 µM.
